From ChEMBL document CHEMBL6074678, “Selectively Antagonizing the NOD1-Mediated Inflammatory Signaling Pathway Mitigates the Gastric Inflammation Induced by Helicobacter pylori Infection” (J Med Chem, 2024) come the findings set out here.

SMILES strings stand for the structures. The source made the active and inactive calls. No cut-off for these calls is given here.

Data set [1] concerns the target T1, Nucleotide-binding oligomerization domain-containing protein 1 (Mus musculus, UniProt Q8BHB0).
T1 sequence (Q8BHB0 whole entry): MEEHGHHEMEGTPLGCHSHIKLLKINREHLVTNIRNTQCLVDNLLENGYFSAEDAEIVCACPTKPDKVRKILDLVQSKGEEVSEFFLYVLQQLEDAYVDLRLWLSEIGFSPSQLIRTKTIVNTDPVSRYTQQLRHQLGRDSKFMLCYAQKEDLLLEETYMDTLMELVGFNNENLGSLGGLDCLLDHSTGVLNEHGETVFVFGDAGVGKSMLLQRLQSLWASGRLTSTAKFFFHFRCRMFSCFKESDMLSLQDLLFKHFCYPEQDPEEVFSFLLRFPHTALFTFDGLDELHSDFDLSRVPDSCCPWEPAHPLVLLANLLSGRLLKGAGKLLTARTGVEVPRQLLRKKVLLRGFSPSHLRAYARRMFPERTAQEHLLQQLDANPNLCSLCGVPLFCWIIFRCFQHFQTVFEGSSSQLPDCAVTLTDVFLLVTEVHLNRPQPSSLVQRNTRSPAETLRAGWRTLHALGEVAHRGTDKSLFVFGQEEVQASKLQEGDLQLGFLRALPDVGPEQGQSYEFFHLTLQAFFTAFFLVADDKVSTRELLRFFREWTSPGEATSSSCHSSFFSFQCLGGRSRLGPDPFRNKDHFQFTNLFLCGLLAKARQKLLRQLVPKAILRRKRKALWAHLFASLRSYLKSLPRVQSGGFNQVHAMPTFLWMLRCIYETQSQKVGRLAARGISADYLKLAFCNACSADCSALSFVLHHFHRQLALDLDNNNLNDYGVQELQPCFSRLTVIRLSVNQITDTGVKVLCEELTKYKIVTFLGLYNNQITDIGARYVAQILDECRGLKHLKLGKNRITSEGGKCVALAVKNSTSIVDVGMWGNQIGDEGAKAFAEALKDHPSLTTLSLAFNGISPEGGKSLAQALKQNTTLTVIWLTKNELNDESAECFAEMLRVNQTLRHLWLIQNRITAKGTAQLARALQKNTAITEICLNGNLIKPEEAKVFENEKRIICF
Put plainly: Antagonist activity at mouse NOD1 expressed in HEK-Blue cells assessed as decrease in SEAP secretion incubated for 3 hrs followed by C12-iE-DAP stimulation for 20 hrs by spectrophotometry. In kind it is cell-based, HEK-Blue mNOD1.

The target of data set [2] is Toll-like receptor 4 (Homo sapiens) (UniProt O00206). Kind of data set: Inhibition of human TLR4 at 1 uM relative to control.
Chain of Toll-like receptor 4 (Homo sapiens) (O00206 whole entry, the tested form may be a part): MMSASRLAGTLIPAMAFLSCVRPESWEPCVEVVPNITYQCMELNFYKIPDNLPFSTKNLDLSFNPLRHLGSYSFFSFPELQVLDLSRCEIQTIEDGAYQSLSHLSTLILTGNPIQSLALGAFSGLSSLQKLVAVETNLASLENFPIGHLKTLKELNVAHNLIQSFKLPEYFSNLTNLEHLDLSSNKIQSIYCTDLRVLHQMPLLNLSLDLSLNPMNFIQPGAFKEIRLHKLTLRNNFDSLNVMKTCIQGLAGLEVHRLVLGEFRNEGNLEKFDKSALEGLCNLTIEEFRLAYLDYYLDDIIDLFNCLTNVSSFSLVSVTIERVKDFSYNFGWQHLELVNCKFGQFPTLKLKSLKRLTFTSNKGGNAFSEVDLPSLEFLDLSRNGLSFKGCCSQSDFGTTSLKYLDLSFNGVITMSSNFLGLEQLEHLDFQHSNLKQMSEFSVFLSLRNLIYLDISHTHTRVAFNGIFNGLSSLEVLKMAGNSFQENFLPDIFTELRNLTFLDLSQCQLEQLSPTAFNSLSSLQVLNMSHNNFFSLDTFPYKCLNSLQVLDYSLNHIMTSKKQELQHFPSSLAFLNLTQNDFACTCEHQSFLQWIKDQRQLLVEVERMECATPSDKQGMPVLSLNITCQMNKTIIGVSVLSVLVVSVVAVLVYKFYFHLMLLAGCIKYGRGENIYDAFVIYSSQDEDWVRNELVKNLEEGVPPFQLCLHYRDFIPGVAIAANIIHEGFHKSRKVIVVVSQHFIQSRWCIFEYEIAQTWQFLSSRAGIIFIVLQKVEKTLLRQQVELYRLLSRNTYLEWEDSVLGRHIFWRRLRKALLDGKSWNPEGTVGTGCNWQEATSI
Data set [3] addresses T2, Nucleotide-binding oligomerization domain-containing protein 1 (Mus musculus) (UniProt Q8BHB0).
T2 sequence (whole entry): T1 sequence (Q8BHB0 whole entry)
Kind of data set: Antagonist activity at mouse NOD1 expressed in HEK-Blue cells assessed as decrease in SEAP secretion at 1 uM incubated for 3 hrs followed by C12-iE-DAP stimulation for 20 hrs by spectrophotometry relative to control. To be noted: HEK-Blue mNOD1, filed as antagonist, time 23.0 hrs. The data set is classed as cell-based.

Data set [4] concerns the target T3, Nucleotide-binding oligomerization domain-containing protein 1 (Homo sapiens, UniProt Q9Y239).
T3 sequence (Q9Y239 whole entry): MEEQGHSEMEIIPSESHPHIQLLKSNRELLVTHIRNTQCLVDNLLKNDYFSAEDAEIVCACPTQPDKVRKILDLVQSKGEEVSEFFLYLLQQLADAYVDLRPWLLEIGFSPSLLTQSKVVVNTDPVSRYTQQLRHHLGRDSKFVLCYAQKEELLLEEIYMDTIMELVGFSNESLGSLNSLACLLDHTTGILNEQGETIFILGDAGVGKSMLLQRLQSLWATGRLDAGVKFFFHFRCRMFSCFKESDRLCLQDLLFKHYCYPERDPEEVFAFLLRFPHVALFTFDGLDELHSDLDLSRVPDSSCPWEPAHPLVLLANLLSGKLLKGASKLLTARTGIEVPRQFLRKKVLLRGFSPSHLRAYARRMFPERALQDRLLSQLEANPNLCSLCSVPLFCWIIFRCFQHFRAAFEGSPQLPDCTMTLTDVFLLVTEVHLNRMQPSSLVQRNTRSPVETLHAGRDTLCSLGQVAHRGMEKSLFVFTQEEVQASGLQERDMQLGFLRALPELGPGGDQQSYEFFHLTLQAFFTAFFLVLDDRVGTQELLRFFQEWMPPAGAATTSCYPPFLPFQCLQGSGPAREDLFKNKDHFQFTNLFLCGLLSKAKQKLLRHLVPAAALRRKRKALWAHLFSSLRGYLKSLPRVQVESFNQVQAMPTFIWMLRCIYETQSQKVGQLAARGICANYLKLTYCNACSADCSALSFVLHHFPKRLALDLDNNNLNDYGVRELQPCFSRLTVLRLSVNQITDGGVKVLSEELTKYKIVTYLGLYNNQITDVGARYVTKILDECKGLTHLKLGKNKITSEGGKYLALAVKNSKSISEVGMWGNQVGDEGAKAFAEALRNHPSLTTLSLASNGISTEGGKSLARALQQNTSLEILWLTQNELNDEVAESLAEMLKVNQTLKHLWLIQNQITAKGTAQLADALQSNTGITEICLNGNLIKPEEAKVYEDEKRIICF
Put plainly: Antagonist activity at human NOD1 expressed in HEK-Blue cells assessed as decrease in SEAP secretion incubated for 3 hrs followed by C12-iE-DAP stimulation for 20 hrs by spectrophotometry. The data set is classed as cell-based, HEK-Blue hNOD1.

Data set [5] concerns the target Toll-like receptor 2 (Homo sapiens) (UniProt O60603). Put plainly: Inhibition of human TLR2 at 1 uM relative to control.
In data set [6] the target is Receptor-interacting serine/threonine-protein kinase 2 (Homo sapiens) (UniProt O43353). Put plainly: Inhibition of RIP2 (unknown origin) at 10 uM relative to control.
Chain of Receptor-interacting serine/threonine-protein kinase 2 (Homo sapiens) (O43353 whole entry): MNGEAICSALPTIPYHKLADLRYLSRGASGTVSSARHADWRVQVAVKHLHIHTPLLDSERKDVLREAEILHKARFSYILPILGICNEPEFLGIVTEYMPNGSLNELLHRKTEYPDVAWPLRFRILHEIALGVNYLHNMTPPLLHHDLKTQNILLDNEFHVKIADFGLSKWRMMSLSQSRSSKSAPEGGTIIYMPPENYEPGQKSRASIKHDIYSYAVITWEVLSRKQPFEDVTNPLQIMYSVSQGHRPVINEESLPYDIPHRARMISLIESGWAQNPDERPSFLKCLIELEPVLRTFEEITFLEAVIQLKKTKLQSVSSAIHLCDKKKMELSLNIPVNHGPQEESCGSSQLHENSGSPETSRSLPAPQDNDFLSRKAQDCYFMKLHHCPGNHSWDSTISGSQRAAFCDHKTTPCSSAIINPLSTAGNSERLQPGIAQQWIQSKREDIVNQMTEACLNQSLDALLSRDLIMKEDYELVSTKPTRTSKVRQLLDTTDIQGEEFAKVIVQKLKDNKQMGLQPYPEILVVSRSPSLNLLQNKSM
The test system of data set [7] is THP-1. Kind of data set: Anti-inflammatory activity in human THP-1 cells assessed as decrease in IL-6 mRNA level at 5 uM pretreated for 1 hr followed by infection with Helicobacter pylori for 2 hrs by RT-qPCR analysis relative to control. The note with it: time 3 hrs. The arrangement: scale not given: the % may be the effect or the level left. The data set is classed as functional. Background: In qPCR the cycle at which signal appears reflects the starting amount.

For the next data set, the system named is BMDM. Put plainly: Anti-inflammatory activity in mouse BMDM cells assessed as decrease in CXCL8 mRNA level at 1 to 5 uM pretreated for 1 hr followed by infection with Helicobacter pylori for 2 hrs by RT-qPCR analysis. In kind it is functional, cell-based. To be noted: dose 1-5 µM, time 3.0 hrs.
The target of data set [8] is T1, Nucleotide-binding oligomerization domain-containing protein 1. Kind of data set: Antagonist activity at mouse NOD1 expressed in HEK293 cells assessed as decrease in NF-kappaB activation. The data set is classed as cell-based.
Data set [9] deals with THP-1. Put plainly: Anti-inflammatory activity in human THP-1 cells assessed as decrease in TNF-alpha mRNA level at 0.1 uM pretreated for 1 hr followed by C12-iE-DAP stimulation for 2 hrs by RT-qPCR analysis relative to control. In kind it is functional. The arrangement: scale not given: the % may be the effect or the level left. To be noted: time 3 hrs.
Data set [10] is described as follows: AUC (infinity) in C57BL/6 mouse at 2 mg/kg, iv by LC-MS/MS analysis. The data set is classed as ADME, organism-based. To be noted: in vivo.
Data set [11] addresses T2, Nucleotide-binding oligomerization domain-containing protein 1 (Mus musculus). Kind of data set: Antagonist activity at NOD1 in mouse BMDM cells assessed as decrease in phosphorylated JNK level at 0.1 to 1 uM incubated for 1 hr followed by C12-iE-DAP stimulation for 30 mins by Western blot analysis. The data set is classed as cell-based. To be noted: filed as antagonist, dose 0.1-1 µM, time 1.5 hrs.

A further data set concerns AGS. Put plainly: Anti-inflammatory activity in human AGS cells assessed as decrease in CXCL8 mRNA level at 1 to 5 uM pretreated for 1 hr followed by infection with Helicobacter pylori for 2 hrs by RT-qPCR analysis. In kind it is functional, cell-based. To be noted: dose 1-5 µM, time 3.0 hrs.

Chain of Toll-like receptor 2 (Homo sapiens) (O60603 whole entry): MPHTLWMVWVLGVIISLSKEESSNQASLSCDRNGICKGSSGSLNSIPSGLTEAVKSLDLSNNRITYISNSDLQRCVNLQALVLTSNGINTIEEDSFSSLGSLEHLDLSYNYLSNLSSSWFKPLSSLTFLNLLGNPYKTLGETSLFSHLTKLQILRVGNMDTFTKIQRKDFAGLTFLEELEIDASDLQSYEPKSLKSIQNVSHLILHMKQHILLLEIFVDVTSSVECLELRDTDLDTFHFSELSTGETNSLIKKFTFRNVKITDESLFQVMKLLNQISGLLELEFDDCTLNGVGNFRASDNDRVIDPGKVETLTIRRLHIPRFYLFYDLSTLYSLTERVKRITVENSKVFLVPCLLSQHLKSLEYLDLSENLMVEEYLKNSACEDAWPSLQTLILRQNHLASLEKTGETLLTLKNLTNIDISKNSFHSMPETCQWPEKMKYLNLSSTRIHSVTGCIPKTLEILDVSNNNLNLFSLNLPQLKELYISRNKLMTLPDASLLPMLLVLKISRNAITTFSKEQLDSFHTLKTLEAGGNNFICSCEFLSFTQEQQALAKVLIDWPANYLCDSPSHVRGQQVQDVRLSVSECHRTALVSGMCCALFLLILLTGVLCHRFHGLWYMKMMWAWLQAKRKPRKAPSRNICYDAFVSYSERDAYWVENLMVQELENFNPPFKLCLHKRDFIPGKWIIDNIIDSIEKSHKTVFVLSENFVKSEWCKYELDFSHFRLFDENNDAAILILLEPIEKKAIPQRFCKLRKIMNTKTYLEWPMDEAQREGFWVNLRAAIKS

As for `N#Cc1ccc2nc(Cl)n(-c3ccc(Cl)c(NS(=O)(=O)c4c(F)cccc4F)c3)c(=O)c2c1`, the figures for the IC50 in [1] and in data set [4] were 54 nM and 2.2 nM, respectively. In addition, the inhibition (in general, the drop in the measured response relative to a control, in per cent) in data set [2] is less than 10%; in [3], 73.6%; in [5], 8.5%; in [6], less than 10%.

`CS(=O)(=O)c1ccc2nc(Cl)n(-c3ccc(Cl)c(NS(=O)(=O)c4ccc5ncsc5c4)c3)c(=O)c2c1`: the IC50 (as a rule, the concentration at which inhibition is half-maximal) in data set [1] came to 58 nM; in data set [4], 0.9 nM. Further, the inhibition in data set [2] was 15.8%; in [3] it was 87.2%; in data set [5], 52.3%; in [6], 10.5%.

In the case of `CS(=O)(=O)c1ccc2nc(Cl)n(-c3ccc(Cl)c(NS(=O)(=O)c4c(F)cccc4F)c3)c(=O)c2c1`, the Activity is 100% in the data set with THP-1 [7] and roughly 100% with THP-1 [9]. In addition, the half-maximal inhibitory concentration (IC50) in [1] turned out to be 32 nM; in [8] it was 32 nM; in data set [4] it was 0.8 nM. For the same compound, the result with BMDM and with AGS was Active. Besides, the inhibition in data set [2] is 10%; in data set [3] it was 80.8%; in data set [5], 12.8%; in [6], 11.4%. Also, the AUC (commonly the area under the concentration-time curve, a measure of exposure) in [10] is 75.3 ng·h/mL. Further, the inhibition result in data set [11] was “Active”.
